Reference: patent US5576433A, “Fluorescent calcium indicators targeted to specific intracellular environments” (priority 1994, dated 1996)
Read-outs that look alike come from different tables or passages of the source. Values belong to the molecule of their own block, whether it stands above or below them.

Legend:
[1] = system: calcium transient during mitosis; conditions: Kao et al.; cited from earlier work
[2] = pH sensitivity of the calcium dissociation constant (Table 2); format: binding; conditions: 100 mM KCl, 10 mM MOPS
Source text: The calcium dissociation constant of BAPTA-like calcium chelators and indicators is strongly affected by electron withdrawing effects of substituents on the BAPTA aromatic rings. The zwitterionic indicators described herein each contain an ionizable amine. The difference in electron withdrawing effects of the ionized and unionized amine could potentially communicate to BAPTA, creating a situation were the calcium affinity varied with pH. The design of PE3 and FFP18 was aimed at minimizing or eliminating this possibility by insulating the ionizable amine from the BAPTA ring with an aliphatic spacer containing one or more carbons. To test the effectiveness of this design, the calcium Kd of PE3 and FFP18 was measured at different pH values and compared to the values obtained for fura-2. […] Thus, the aim of the test was to determine whether the piperazine amino group gives the indicator increased pH sensitivity.
On page 36 of U.S. Pat. No. 4,603,209 (Tsien, et. al., 1987 Aug. 25), R2 is claimed as H, CH3, F, Cl, Br and […]. The R2 of PE3 and FFP18 is none of these claimed in that patent.

muscle calcium = conditions: Hollingsworth and Baylor; cited from earlier work
[3] = system: intracellular [Ca^2+ ] transients; assay: Recorded versus calculated calcium influx; format: cell-based; conditions: 4 cells
Experimental: FIG. 13 and FIG. 13A show the relationship between the intracellular [Ca^2+ ] transients over time for fura-2 and FFP18. In Example 7, the relationship between the intracellular [Ca^2+ ] transients reported by FFP18 or fura-2 and calculated [Ca^2+ ] transients representing calcium influx are shown as a function of time. The amount of Ca^2+ entering the cell across the membrane was calculated by integrating the inward current signal and converting the charge to moles of Ca^2+ per cell volume. This [Ca^2+ ] was divided by the average buffering capacity of these cells. […] The [Ca^2+ ] transients reported by the calcium indicators are shown by the more noisy traces.
The amount of Ca^2+ entering the cell across the membrane was calculated by integrating the inward current signal and converting the charge to moles of Ca^2+ per cell volume. This [Ca^2+ ] was divided by the average buffering capacity of these cells. […]
In 4 cells where the [Ca^2+ ] transient was recorded using fura-2, the magnitude of the recorded and calculated increases in [Ca^2+ ] were similar. The ratio of calcium influx measured using fura-2 to the calcium influx calculated from the integral of the current at the 200 msec time point gives a value of 0.9+/-0.05 [nM (recorded)/nM(calculated)].

322 T lymphoma cells [4] = assay: Leakage of indicator from loaded cells / drift of apparent baseline calcium; format: cell-based; conditions: for apparent baseline intracellular calcium / dye leakage (in words): cells loaded with AM ester 1 hour, HBSS with 1% fetal bovine serum
Tradescantia cells = conditions: within a short time; Hepler and Poenie, unpublished; cited from earlier work
[5] = system: leakage and compartmentalization of fura-2; conditions: cited from earlier work
[6] = read-out: apparent Kd for EGTA (assumed), cited from earlier work
PTK1 cells = conditions: cited from earlier work
[7] = Magnesium Kd of indicator (Table 1); format: binding
Experimental: (§1) The excitation spectrum was recorded of 1 μM FFP18 in 2.5 ml of 130 mM KCl, 20 mM NaCl, 1 mM EGTA, 10 mM MOPS, pH 7.05 at 37° C. Then 25 μl of the solution was replaced with 25 μl of a solution containing 1 μM of that same dye, 111.2 mM MgC12, 12.2 mM EGTA, 10 mM MOPS, pH 7.05. This exchange yielded 1 mM free Mg^2+ 0.2 and 5 mM free Mg^2+ were obtained by successively exchanging 25.25 and 76.53 μl of the original solution with that of the latter solution containing the high concentration of Mg^2+. Emission was collected at 490 nm for fura-PE3 and 485 nm for FFP18, 4 nm band pass, and excitation 5 nm band pass.
as §1, with “1 μM PE3 in 2.5” for “1 μM FFP18 in 2.5”, “1 μM PE3, 111.2 mM” for “1 μM of that same dye, 111.2 mM”, “mM free Mg^2+. The 2 and 5” for “mM free Mg^2+ 0.2 and 5”, “free Mg^2+ concentrations were obtained” for “free Mg^2+ were obtained”

[8] = Spectral properties (absorbance and fluorescence with and without calcium); format: physicochemical
322 T lymphoma cells [9] = assay: Response of PE3 loaded cells to changes in intracellular calcium
[10] = Calcium Kd of indicator in solution (Table 1); format: binding
[11] = pH 6.9, 20° C., read-out: calcium Kd at pH 6.9
[12] = pH 7.3, 20° C., read-out: calcium Kd at pH 7.3

Kd [2, 11]: 0.216 ± 0.004 µM
Kd [2, 12]: 0.161 ± 0.002 µM
SMILES: Cc1ccc(N(CC(=O)O)CC(=O)O)c(OCCOc2cc3cc(-c4ncc(C(=O)O)o4)oc3cc2N(CC(=O)O)CC(=O)O)c1 [fura-2]
detection of calcium transient during mitosis [1]: seldom seen
ability to follow rapid changes in muscle calcium (muscle calcium): not fast enough to follow rapid changes in muscle calcium and was unable to track calcium levels at their peak
magnitude of recorded versus calculated increase in [Ca^2+ ] (in words) [3]: similar
ratio of calcium influx recorded by indicator to calcium influx calculated ([3]; calculated from integral of the current at the 200 msec time point (time point stated for fura-2)): 0.9+/-0.05 nM (recorded)/nM(calculated)
apparent baseline intracellular calcium / dye leakage (in words) (322 T lymphoma cells [4]): continuous increase in apparent intracellular calcium levels
transfer of cytosolic indicator to vacuole (in words) (Tradescantia cells): virtually all of the cytosolic indicator was transferred to the vacuole

SMILES: O=C1C(CC[S+]([O-])c2ccccc2)C(=O)N(c2ccccc2)N1c1ccccc1 (stereo not shown) [sulfinpyrazone]
effect on leakage and compartmentalization of fura-2 [5]: help reduce leakage and compartmentalization

SMILES: CCCN(CCC)S(=O)(=O)c1ccc(C(=O)O)cc1 [probenecid]
effect on leakage and compartmentalization of fura-2 [5]: help reduce leakage and compartmentalization

SMILES: O=C(O)CN(CCOCCOCCN(CC(=O)O)CC(=O)O)CC(=O)O [EGTA, ethylene glycol bis(beta-aminoethyl ether)N,N,N'N'tetraacetic acid]
Kd ([6]; pH 6.9, 20° C.): 0.594 µM
Kd ([6]; pH 7, 20° C.): 0.0954 µM

SMILES: CC(=O)OCOC(=O)CN(CC(=O)OCOC(C)=O)c1ccc(C)cc1OCCOc1cc2cc(-c3ncc(C(=O)OCOC(C)=O)o3)oc2cc1N(CC(=O)OCOC(C)=O)CC(=O)OCOC(C)=O [fura-2/AM]
loading in cells (in words) (PTK1 cells): consistent failure

SMILES: Cc1ccc(N(CC(=O)O)CC(=O)O)c(OCCOc2cc(-c3c4ccc(=[N+](C)C)cc-4oc4cc(N(C)C)ccc34)ccc2N(CC(=O)O)CC(=O)O)c1 [rhod-2]
transfer of cytosolic indicator to vacuole (in words) (Tradescantia cells): differed in this respect

Kd ([7]; 20° C.): 4300 µM
Kd ([7]; 37° C.): 4000 µM
Fluorescence Quantum Efficiency, Ca bound ([8]; Ca bound): 0.27
Peak Absorption Wavelength, Ca bound ([8]; Ca bound): 335 nm
Peak Emission Wavelength, Ca bound ([8]; Ca bound): 495 nm
Fluorescence Quantum Efficiency, Free anion ([8]; Free anion): .043
Peak Absorption Wavelength, Free anion ([8]; Free anion): 364 nm
Peak Emission Wavelength, Free anion ([8]; Free anion): 508 nm
absorbance, excitation, emission and quantum efficiency (in words) ([8]; presence and absence of calcium): all typical of fura-2
Kd [2, 11]: 0.269 ± 0.003 µM
Kd [2, 12]: 0.204 ± 0.004 µM
calcium binding affinity compared with fura-2 (in words) [10]: somewhat weaker than that of fura-2
Kd ([10]; 20° C., 100 mM KCl, 10 mM MOPS, pH 7.3 (footnote c)): 0.204 µM
Kd ([10]; 37° C., 130 mM KCl, 20 mM NaCl, 1 mM free MgCl2, MOPS, pH 7.05 (footnote a)): 0.209 µM
SMILES: O=C(O)CN1CCN(C(=O)CCc2ccc(N(CC(=O)O)CC(=O)O)c(OCCOc3cc4cc(-c5ncc(C(=O)O)o5)oc4cc3N(CC(=O)O)CC(=O)O)c2)CC1 [PE3]
fluorescence response at 340 nm to increase in calcium (322 T lymphoma cells [9]; after Concanavalin A): fluorescense at 340 nm increases
fluorescence response at 380 nm to increase in calcium (322 T lymphoma cells [9]; after Concanavalin A): fluorescense at 380 nm decreases
fluorescence response at 340 nm and 380 nm (322 T lymphoma cells [9]; after ionomycin): even greater response of the indicator at 340 nm and 380 nm
fluorescence after reducing free calcium with EGTA (322 T lymphoma cells [9]; digitonin lysed, EGTA added): fluorescense at 380 nm now becomes much brighter while the fluorescense at 340 becomes dim
leakage and compartmentalization (in words) (322 T lymphoma cells [4]): resists leakage and compartmentalization
apparent baseline intracellular calcium / dye leakage (in words) (322 T lymphoma cells [4]): small change in baseline intracellular calcium levels reflects the lower leakage rate out of the cell
